Assays:
[1] = system: cultured cells of Taxus media; details: α-linolenic acid, concentration not given, 14 days
Description: Two grams (fresh weight) of the cultured cells thus obtained by liquid culture was inoculated to 20 ml of liquid Woody Plant Medium (contained in an Erlenmeyer flask of 100 ml) to which α-linolenic acid of 0.01-1000 μM (dissolved in ethanol) was added, and shake culture was carried out at 25° C. in a dark place with a rotary shaker (amplification of 25 mm, 100 rpm).
After completing the culture for 14 days, cultured cells were harvested by filtration and lyophilized, then the dry weight was measured to obtain the yield thereof. Taxane-type diterpenes were extracted from the dried callus and the culture medium with methanol or the like, and they were determined by comparing with standard taxol using high performance liquid chromatography to measure the yield of taxol.

[2] = system: cultured cells of Taxus baccata LINN; assay: Taxus baccata cell culture with fatty acids or natural oil; type: cell-based; details: 14 days
Description: One gram (fresh weight) of the callus was inoculated to an Erlenmeyer flask containing 20 ml of liquid Woody Plant Medium and shake culture was carried out with a rotary shaker (amplification of 25 mm, 100 rpm) and the callus was subcultured in every 21 days to accelerate the growth rate thereof.

[3] = concentration of α-linolenic acid 0.01 μM
[4] = concentration of α-linolenic acid 0.1 μM
[5] = concentration of α-linolenic acid 1 μM
[6] = concentration of α-linolenic acid 10 μM
[7] = concentration of α-linolenic acid 100 μM
[8] = concentration of α-linolenic acid 500 μM
[9] = concentration of α-linolenic acid 1000 μM

With `CC/C=C\C/C=C\C/C=C\CCCCCCCC(=O)O` [Example 26, α-linolenic acid] the yield of cells [1] was 20 g/L, the “yield of taxane-type diterpenes, baccatin III” value (“yield … baccatin III” below) [1] was 10 mg/L and the “yield of taxane-type diterpenes, cephalomannine” value (“yield … cephalomannine” below) [1] was 2 mg/L. For the same compound, the “yield of taxane-type diterpenes, taxol” value [1] was 22 mg/L, the yield of cells [2, 3] was 20 g/L and the “yield … baccatin III” value [2, 3] was 2 mg/L. The “yield … cephalomannine” value [2, 3] was 2 mg/L, the “yield of taxane-type diterpenes, taxol” value [2, 3] was 5 mg/L and the yield of cells [2, 4] was 20 g/L. For the same compound, the “yield … baccatin III” value [2, 4] was 2 mg/L, the “yield … cephalomannine” value [2, 4] was 2 mg/L and the “yield of taxane-type diterpenes, taxol” value [2, 4] was 6 mg/L. The yield of cells [2, 5] was 20 g/L, the “yield … baccatin III” value [2, 5] was 2 mg/L and the “yield … cephalomannine” value [2, 5] was 2 mg/L. The “yield of taxane-type diterpenes, taxol” value [2, 5] was 6 mg/L, the yield of cells [2, 6] was 20 g/L and the “yield … baccatin III” value [2, 6] was 3 mg/L. For the same compound, the “yield … cephalomannine” value [2, 6] was 4 mg/L, the “yield of taxane-type diterpenes, taxol” value [2, 6] was 8 mg/L and the yield of cells [2, 7] was 19 g/L. The “yield … baccatin III” value [2, 7] was 6 mg/L, the “yield … cephalomannine” value [2, 7] was 4 mg/L and the “yield of taxane-type diterpenes, taxol” value [2, 7] was 19 mg/L. For the same compound, the yield of cells [2, 8] was 14 g/L, the “yield … baccatin III” value [2, 8] was 4 mg/L and the “yield … cephalomannine” value [2, 8] was 3 mg/L. The “yield of taxane-type diterpenes, taxol” value [2, 8] was 12 mg/L, the yield of cells [2, 9] was 12 g/L and the “yield … baccatin III” value [2, 9] was 2 mg/L. The “yield … cephalomannine” value [2, 9] was 2 mg/L and the “yield of taxane-type diterpenes, taxol” value [2, 9] was 7 mg/L.

— patent US6465221B1, “Method of producing a taxane-type diterpene” (Mitsui Chemicals, Inc., priority 1994, dated 2002)
